“And” between values parts separate entries of the source, which are not always exact repeats. Identical values can stand only once.
What was measured:
[1] = molecular target: T1, Thromboxane Synthetase (Homo sapiens, UniProt P24557); experiment: Inhibition of ADP-induced human platelet aggregation (PRP + pig aortic microsomes) as measure of thromboxane synthetase inhibition; format: cell-based
T1 construct: Human platelet-rich plasma preparation; endogenous in cells; host or cells: human platelets in citrated platelet-rich plasma
T1 sequence (P24557 1-533): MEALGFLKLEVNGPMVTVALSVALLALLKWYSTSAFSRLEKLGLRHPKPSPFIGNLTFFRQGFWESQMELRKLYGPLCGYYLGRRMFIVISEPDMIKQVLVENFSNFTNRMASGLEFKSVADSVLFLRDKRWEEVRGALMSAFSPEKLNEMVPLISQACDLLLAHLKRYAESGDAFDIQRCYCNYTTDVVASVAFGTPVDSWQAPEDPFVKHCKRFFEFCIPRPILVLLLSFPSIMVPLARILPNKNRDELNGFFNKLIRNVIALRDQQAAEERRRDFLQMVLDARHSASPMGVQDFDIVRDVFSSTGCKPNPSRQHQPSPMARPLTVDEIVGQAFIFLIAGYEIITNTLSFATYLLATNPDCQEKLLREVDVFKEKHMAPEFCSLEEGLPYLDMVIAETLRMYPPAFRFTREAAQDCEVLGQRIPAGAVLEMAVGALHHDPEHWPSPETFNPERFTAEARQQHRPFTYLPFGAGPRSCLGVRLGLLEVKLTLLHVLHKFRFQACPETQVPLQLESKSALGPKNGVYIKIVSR
Experimental: Platelet Aggregation Inhibition
Comparison of 2-(3-pyridylmethyl)naphthalene-6-carboxylic acid and 2-(3-pyridylmethyl)naphthalene-7-carboxylic acid.
Platelet Aggregation Inducer: ADP
Determination of Inhibition and Thromboxane Synthetase Activity Utilizing Human Platelet Aggregation
Human platelet-rich plasma preparation:
Blood sample is collected into siliconized vacutainers containing sodium citrate (0.5 ml of 11.25% sodium citrate per 15 ml vacutainer) final concentration 0.38%. Platelet rich plasma (PRP) is obtained after centrifuging the blood for 15 minutes at 200 xg at room temperature. Blood and plasma contacts only non-wettable plastic or siliconized glass surfaces. Procedure:
1. Aggregation is followed by the turbidimetric method of Born (J. Physiol. 162, 67p, 1962), using a Payton Dual Channel Aggregometer.
2. PRP-PAM control. 1.0 ml PRP is used. Pig aortic microsomes (PAM), prepared according to Neichi, et al. (Prostaglandins, 19(4), 577-86 (1980)), are incubated in PRP at 37° C. with stirring for 3 minutes, immediately followed by addition of inducer-ADP. The concentration of PAM is chosen to show little or no inhibition of platelet aggregation when compared with the aggregation of PRP alone.
3. PRP-PAM plus thromboxane synthetase inhibitor.
Thromboxane synthetase inhibitor is added to 1.0 ml PRP incubated at 37° C. with stirring for two minutes. The PAM concentration is chosen according to step 2, and is added to PRP incubated at 37° C. with stirring for another 3 minutes. The inducer ADP is added immediately afterwards.

[2] = tested on: prostacyclin; conditions: background statement; PGH2 diversion to PGI2 when TxA2 synthesis is blocked; cited from earlier work
[3] = 1 × 10^-4 M, inducer ADP 5×10^-6 M, solvent water
[4] = 1.0 × 10^-7 M, inducer ADP 5×10^-6 M, solvent water
[5] = 2 × 10^-5 M, inducer ADP 5×10^-6 M, solvent water
[6] = 5 × 10^-4 M, inducer ADP 5×10^-6 M, solvent water
[7] = 5.0 × 10^-5 M, inducer ADP 5×10^-6 M, solvent water
[8] = 5 × 10^-6 M, inducer ADP 5×10^-6 M, solvent water
[9] = 5.0 × 10^-7 M, inducer ADP 5×10^-6 M, solvent water

O=C(O)c1ccc2cc(Cc3cccnc3)ccc2c1 [2-(3-pyridylmethyl)naphthalene-6-carboxylic acid]
% Inhibition [1, 3]: 85.2%
inhibition at 100 µM [1, 3]: 98.3%
% Inhibition [1, 4]: 29.3 ± 3.7%
inhibition at 0.1 µM [1, 4]: 47 ± 5.2%
inhibition at 0.01 µM ([1]; 1.0 × 10^-8 M, inducer ADP 5×10^-6 M, solvent water): 4.7%
% Inhibition [1, 5]: 97.4 ± 1.3%
inhibition at 20 µM [1, 5]: 90.9 ± 1.3%
% Inhibition ([1]; 2 × 10^-7 M, inducer ADP 5×10^-6 M, solvent water): 58.7 ± 9.2% and 97.1 ± 1.9%
inhibition at 0.02 µM ([1]; 2.0 × 10^-8 M, inducer ADP 5×10^-6 M, solvent water): 1.6%
% Inhibition [1, 6]: 87.3%
inhibition at 500 µM [1, 6]: 96.6%
% Inhibition [1, 7]: 86.5 ± 2.2%
inhibition at 50 µM [1, 7]: 86.8 ± 1.8%
% Inhibition [1, 8]: 100.0% and 85.1 ± 4.1% and 85.3 ± 5.5%
inhibition at 5 µM [1, 8]: 88.7 ± 3.5%
% Inhibition [1, 9]: 75.8 ± 3.5%
inhibition at 0.5 µM [1, 9]: 78.3%
greater activity as a thromboxane synthetase inhibitor by a factor ([1]; factor relative to 2-(3-pyridylmethyl)-naphthalene-7-carboxylic acid): about 200

O=C(O)c1ccc2ccc(Cc3cccnc3)cc2c1 [2-(3-pyridylmethyl)naphthalene-7-carboxylic acid, reference compound]
inhibition at 100 µM [1, 3]: 88.8%
inhibition at 20 µM [1, 5]: 47.9%
inhibition at 500 µM [1, 6]: 92.8%
inhibition at 5 µM [1, 8]: 18.2%
IC50 ([1]; platelet aggregation inhibition, inducer ADP 5×10^-6 M, solvent water): 21 µM

O=C(O)c1ccc(OCCn2ccnc2)cc1 [dazoxiben]
levels of prostacyclin produced [2]: quite low

From US4766127A, “2-(3-pyridylmethyl)naphthalene-6-carboxylic acid as a thromboxane synthetase inhibitor” (Syntex (U.S.A.) Inc., priority 1987, dated 1988)
